Measurements from paper PMC6151383 (Molecules : A Journal of Synthetic Chemistry and Natural …, 2017).
In brackets after ≈: the same amount, converted by molar mass. Read-outs that look alike come from different tables or passages of the source.

Tests used:
[1] = system: Staphylococcus aureus CCM 4516/08; experiment: Antibacterial microdilution broth MIC, S. aureus; assay type: cell-based; conditions: Staphylococcus aureus, CCM4516; 48 h incubation; read-out: MIC SA 48 h
[2] = system: Staphylococcus epidermidis H 6966/08; experiment: Antibacterial microdilution broth MIC, S. epidermidis; assay type: cell-based; conditions: Staphylococcus epidermidis, H6966/08; 48 h incubation; read-out: MIC SE 48 h
[3] = system: Enterococcus faecalis J 14365/08; experiment: Antibacterial microdilution broth MIC, E. faecalis; assay type: cell-based; conditions: Enterococcus faecalis, J14365/08; 48 h incubation; read-out: MIC EF 48 h
[4] = system: Escherichia coli CCM 4517; experiment: Antibacterial microdilution broth MIC, E. coli; assay type: cell-based; conditions: Escherichia coli, CCM4517; 48 h incubation; read-out: MIC EC 48 h
[5] = system: Pseudomonas aeruginosa CCM 1961; experiment: Antibacterial microdilution broth MIC, P. aeruginosa; assay type: cell-based; conditions: Pseudomonas aeruginosa, CCM1961; 48 h incubation; read-out: MIC PA 48 h
[6] = system: Mycobacterium tuberculosis 331/88 (H37Rv); experiment: In vitro antimycobacterial MIC, M. tuberculosis; assay type: cell-based
[7] = system: Mycobacterium avium 330/88; experiment: In vitro antimycobacterial MIC, M. avium; assay type: cell-based
[8] = system: Mycobacterium kansasii 235/80; experiment: In vitro antimycobacterial MIC, M. kansasii 235/80; assay type: cell-based
M. kansasii 6509/96 = experiment: In vitro antimycobacterial MIC, M. kansasii clinical isolate; assay type: cell-based; conditions: Mycobacterium kansasii
[9] = system: Candida albicans ATCC 44859; experiment: Antifungal microdilution broth MIC, C. albicans; assay type: cell-based; conditions: ATCC44859, 48 h incubation, read-out: MIC CA 48 h
Candida tropicalis 156 = experiment: Antifungal microdilution broth MIC, C. tropicalis; assay type: cell-based; conditions: Candida tropicalis, 156; 48 h incubation; read-out: MIC CT 48 h
Candida krusei E28 = experiment: Antifungal microdilution broth MIC, C. krusei; assay type: cell-based; conditions: Pichia kudriavzevii, E28; 48 h incubation; read-out: MIC CK 48 h
Candida glabrata 20/I = experiment: Antifungal microdilution broth MIC, C. glabrata; assay type: cell-based; conditions: Nakaseomyces glabratus, 48 h incubation, read-out: MIC CG 48 h
Trichosporon asahii 1188 = experiment: Antifungal microdilution broth MIC, T. asahii; assay type: cell-based; conditions: Trichosporon asahii, 1188; 48 h incubation; read-out: MIC TA 48 h
[10] = system: Aspergillus fumigatus 231; experiment: Antifungal microdilution broth MIC, A. fumigatus; assay type: cell-based; conditions: Aspergillus fumigatus, 231; 48 h incubation; read-out: MIC AF 48 h
[11] = system: Lichtheimia corymbifera 272; experiment: Antifungal microdilution broth MIC, L. corymbifera; assay type: cell-based; conditions: Lichtheimia corymbifera, 272; 48 h incubation; read-out: MIC LC 48 h
[12] = system: Trichophyton interdigitale 445; experiment: Antifungal microdilution broth MIC, T. interdigitale; assay type: cell-based
Candida sp. = experiment: Selectivity index for Candida sp. (IC50 HepG2/MIC); assay type: cell-based; conditions: all Candida species
M. tuberculosis and NTM = experiment: Antimycobacterial activity, panel; assay type: cell-based; conditions: Mycobacterium tuberculosis
[13] = system: Klebsiella pneumoniae D 11750/08
[14] = system: ESBL-positive Klebsiella pneumoniae J 14368/08
[15] = system: Gram-positive and Gram-negative bacteria; conditions: both Gram-positive and Gram-negative bacteria; cited from earlier work

## O=S(=O)(Nc1ncccn1)c1ccc(N=Cc2ccccc2O)cc1 [Compound 2a, 4-[(2-Hydroxybenzylidene)amino]-N-(pyrimidin-2-yl)benzenesulfonamide]
[1]
  MIC: 500 µM (≈ 177 µg/mL)
[2]
  MIC: 62.5 µM (≈ 22.1 µg/mL)
[3]
  MIC: 62.5 µM (≈ 22.1 µg/mL)
[4]
  MIC: > 500 µM
[5]
  MIC: 500 µM (≈ 177 µg/mL)
[6]; 336 h, 14 d incubation, read-out: MIC Mtb. 331/88 14 d
  MIC: 16 µM (≈ 5.67 µg/mL)
[6]; 504 h, 21 d incubation, read-out: MIC Mtb. 331/88 21 d
  MIC: 32 µM (≈ 11.3 µg/mL)
[7]; 330/88, 336 h, 14 d incubation, read-out: MIC M. avium 330/88 14 d
  MIC: 125 µM (≈ 44.3 µg/mL)
[7]; 330/88, 504 h, 21 d incubation, read-out: MIC M. avium 330/88 21 d
  MIC: 250 µM (≈ 88.6 µg/mL)
[8]; 235/80, 168 h, 7 d incubation, read-out: MIC M. kansasii 235/80 7 d
  MIC: 8 µM (≈ 2.84 µg/mL)
[8]; 235/80, 336 h, 14 d incubation, read-out: MIC M. kansasii 235/80 14 d
  MIC: 16 µM (≈ 5.67 µg/mL)
[8]; 235/80, 504 h, 21 d incubation, read-out: MIC M. kansasii 235/80 21 d
  MIC: 32 µM (≈ 11.3 µg/mL)
M. kansasii 6509/96; 6509/96, 168 h, 7 d incubation, read-out: MIC M. kansasii 6509/96 7 d
  MIC: 8 µM (≈ 2.84 µg/mL)
M. kansasii 6509/96; 6509/96, 336 h, 14 d incubation, read-out: MIC M. kansasii 6509/96 14 d
  MIC: 16 µM (≈ 5.67 µg/mL)
M. kansasii 6509/96; 6509/96, 504 h, 21 d incubation, read-out: MIC M. kansasii 6509/96 21 d
  MIC: 32 µM (≈ 11.3 µg/mL)
[9]
  MIC: > 500 µM
Candida tropicalis 156
  MIC: > 500 µM
Candida krusei E28
  MIC: > 500 µM
Candida glabrata 20/I
  MIC: > 500 µM
Trichosporon asahii 1188
  MIC: > 500 µM
[10]
  MIC: > 500 µM
[11]
  MIC: > 500 µM
[12]; Trichophyton interdigitale, 445, 72 h, read-out: MIC TI 72 h
  MIC: 125 µM (≈ 44.3 µg/mL)
[12]; Trichophyton interdigitale, 445, 120 h, read-out: MIC TI 120 h
  MIC: 125 µM (≈ 44.3 µg/mL)
[12]; Trichophyton interdigitale, 445, read-out: MIC for T. interdigitale
  MIC: 125 µM (≈ 44.3 µg/mL)
Candida sp.
  SI for Candida sp.: inactive
M. tuberculosis and NTM; M. tuberculosis and both M. kansasii strains only, read-out: MIC, M. tuberculosis and both M. kansasii strains
  MIC: ≤ 32 µM
M. tuberculosis and NTM; range over all four mycobacterial strains and incubation times, read-out: MIC, M. tuberculosis and NTM
  MIC: 8 to 250 µM (≈ 2.84 to 88.6 µg/mL)
[13]; 24 h
  MIC KP 24 h: >500 µM
[13]; 48 h
  MIC KP 48 h: >500 µM
[14]; 24 h
  MIC KP-E 24 h: >500 µM
[14]; 48 h
  MIC KP-E 48 h: >500 µM
[15]
  minimum inhibitory concentrations (MICs): 100 to 250 µg/mL
